From patent publication US20260159525A1, “TRICYCLIC HETEROCYCLES” (Merck Patent GmbH, priority 2021, published 2026)

Test system: YAP-TEAD interaction
Assay: SK-HEP-1 reporter assay (8x TEAD responsive elements driving NanoLuc luciferase)
Type: cell-based
Conditions: Homo sapiens, SK-HEP1, SK-HEP-1 cells, 24 hour incubation, group symbols
Procedure: To identify inhibitors of YAP-TEAD interaction, 8× TEAD responsive elements driving the NanoLuc® luciferase gene were stably integrated into SK-HEP-1 cells (ECACC #: 91091816).
For the assay, cells were treated in duplicates with the test compounds in a 10-point dose, with the top concentration starting at 30 μM (final concentration in assay). After a 24 hour incubation at 37° C., 95% rH, and 5% CO2, a luciferase substrate/lysis reagent mix (NanoGlo™, Promega) was added to the cells, allowing the quantification of cellular luciferase activity.
Cell Media: The cells were cultured in the following media: MEM, +10% FBS, +1× GlutaMAX, +1 mM Sodium-Pyruvate, +100 μM Non-essential amino acids, +0.1 mg/ml Hygromycin. The media used for the assay was: MEM (w/o Phenol Red), +10% FBS, +1× GlutaMAX, +1 mM Sodium-Pyruvate, +100 μM Non-essential amino acids, +0.5% Pen/Strep
Reagents: The reagents used are listed below:
Cell culture: The cells were examined using an inverted microscope to check for health and cell density. To dissociate adherent cells, the monolayer of cells was washed once with pre-warmed PBS. After removing the PBS, 3 ml pre-warmed Accutase® was added to a F75 flask, dispersed evenly and the flask was allowed to sit in incubator for ˜4-5 minutes.
When a single cell suspension was obtained, 7 ml of prewarmed growth media was added and resuspended with the cells. The cell suspension was transferred to a sterile 15 ml conical centrifuge tube, and spun for 5 min at 300×g, RT. The supernatant was discarded and the pellet was resuspended in 10 ml of pre-warmed growth media.
The total cell count was determined, and 20 μl of the desired cell number was added to each well of a 384 well plate using a Multidrop Combi. The plates were then incubated for 24 hours at 37° C., 95% rH, and 5% CO2.
Compound treatment: 24 hours after seeding, the cells were treated with compounds.
A 1:333 dilution of compounds, diluted in DMSO, was made to get a final concentration of 0.3% DMSO per well. To transfer the compounds to the assay plate, 120 nl was shot from Labcyte low dead volume plates to the cell plates containing 20 μl media/well with the ECHO 555 liquid handling system. After treatment, the cells were fed with 20 μl fresh pre-warmed assay media using a Multidrop combi.
The assay plates were then incubated for another 24 h at 37° C., 95% rH, and 5% CO2.
Luciferase readout: 24 h after treatment, the plates were taken out of the incubator and were allowed to equilibrate to RT. 30 μl of NanoGlo® reagent was added to the plates in the dark. Plates were shaken for 20 min on a Teleshake (˜1500 rpm) in the dark. The luminescence was then measured using an EnVision microplate reader. The IC50 values were generated using Genedata Screener®.

| Compound | IC50 |
| --- | --- |
| Cn1cc2c3cc(C(=O)O)sc3n(-c3ccc(OC(F)F)cn3)c2n1 [Compound 127, 7-[5-(difluoromethoxy)pyridin-2-yl]-4-methyl-9-thia-4,5,7-triazatricyclo[6.3.0.0^2,6]undeca-1(8),2,5,10-tetraene-10-carboxylic acid] | 10 to 100 nM |
| Cn1cc2c3cc(C(=O)O)sc3n(-c3ccc(OC(F)(F)F)cc3)c2n1 [Compound 54, 4-methyl-7-[4-(trifluoromethoxy)phenyl]-9-thia-4,5,7-triazatricyclo[6.3.0.0^2,6]undeca-1(8),2,5,10-tetraene-10-carboxylic acid] | 1 to 10 nM |
| Cn1cc2c3sc(C(=O)NCCO)cc3n(-c3ccc(C(F)(F)F)cc3)c2n1 [Compound 13, N-(2-hydroxyethyl)-10-methyl-7-[4-(trifluoromethyl)phenyl]-3-thia-7,9,10-triazatricyclo[6.3.0.0^2,6]undeca-1(11),2(6),4,8-tetraene-4-carboxamide] | > 10000 nM |
| Cn1cc2c3sc(C(=O)NC4CC4)cc3n(-c3ccc(C(F)(F)F)cc3)c2n1 [compound 12] | > 10000 nM |
| Cn1cc2c3sc(C(=O)O)cc3n(CCC(C)(C)C(F)(F)F)c2n1 [Compound 24, 10-methyl-7-(4,4,4-trifluoro-3,3-dimethylbutyl)-3-thia-7,9,10-triazatricyclo[6.3.0.0^2,6]undeca-1(11),2(6),4,8-tetraene-4-carboxylic acid] | 100 to 10000 nM |
| CNC(=O)c1cc2c(s1)c1nn(C)nc1n2-c1ccc(OC(F)(F)F)cc1 [Compound 29, N,4-dimethyl-7-[4-(trifluoromethoxy)phenyl]-11-thia-3,4,5,7-tetraazatricyclo[6.3.0.0^2,6]undeca-1(8),2,5,9-tetraene-10-carboxamide] | > 10000 nM |
| Cn1cc2c3cc(C(=O)O)sc3n(-c3ccc(S(F)(F)(F)(F)F)cc3)c2n1 [Compound 98, 4-methyl-7-[4-(pentafluoro-lambda6-sulfanyl)phenyl]-9-thia-4,5,7-triazatricyclo[6.3.0.0^2,6]undeca-1(8),2,5,10-tetraene-10-carboxylic acid] | 100 to 10000 nM |
| Cn1cc2c3cc(C#N)sc3n(-c3ccc(C(F)(F)F)cc3)c2n1 [Compound 94, 4-methyl-7-[4-(trifluoromethyl)phenyl]-9-thia-4,5,7-triazatricyclo[6.3.0.0^2,6]undeca-1(8),2,5,10-tetraene-10-carbonitrile] | 100 to 10000 nM |
| C[C@H](CO)NC(=O)c1cc2c(s1)c1cn(C)nc1n2-c1ccc(C(F)(F)F)cc1 [Compound 16, N-[(2R)-1-hydroxypropan-2-yl]-10-methyl-7-[4-(trifluoromethyl)phenyl]-3-thia-7,9,10-triazatricyclo[6.3.0.0^2,6]undeca-1(11),2(6),4,8-tetraene-4-carboxamide] | > 10000 nM |
| Cn1cc2c3cc(C(=O)NCC4CNC4)sc3n(-c3ccc(C(F)(F)F)cc3)c2n1 [Compound 60, N-[(azetidin-3-yl)methyl]-4-methyl-7-[4-(trifluoromethyl)phenyl]-9-thia-4,5,7-triazatricyclo[6.3.0.0^2,6]undeca-1(8),2,5,10-tetraene-10-carboxamide] | 100 to 10000 nM |
| Cn1nc2c3sc(C(N)=O)cc3n(-c3ccc(C(F)(F)F)cc3)c2n1 [Compound 28, 4-methyl-7-[4-(trifluoromethyl)phenyl]-11-thia-3,4,5,7-tetraazatricyclo[6.3.0.0^2,6]undeca-1(8),2,5,9-tetraene-10-carboxamide] | > 10000 nM |
| COCC(CO)NC(=O)c1cc2c3cn(C)nc3n(-c3ccc(C(F)(F)F)cc3)c2s1 (centres unmarked) [Compound 111, N-(1-hydroxy-3-methoxypropan-2-yl)-4-methyl-7-[4-(trifluoromethyl)phenyl]-9-thia-4,5,7-triazatricyclo[6.3.0.0^2,6]undeca-1(8),2,5,10-tetraene-10-carboxamide] | 100 to 10000 nM |
| Cn1cc2c3cc(C(=O)O)sc3n(-c3ccc(C(F)(F)F)cn3)c2n1 [Compound 53, 4-methyl-7-[5-(trifluoromethyl)pyridin-2-yl]-9-thia-4,5,7-triazatricyclo[6.3.0.0^2,6]undeca-1(8),2,5,10-tetraene-10-carboxylic acid] | 1 to 10 nM |
| Cn1nc2c3cc(C(=O)N[C@@H](CO)c4ccccn4)sc3n(-c3ccc(C(F)(F)F)cc3)c2n1 [Compound 104, N-[(1R)-2-hydroxy-1-(pyridin-2-yl)ethyl]-4-methyl-7-[4-(trifluoromethyl)phenyl]-9-thia-3,4,5,7-tetraazatricyclo[6.3.0.0^2,6]undeca-1(8),2,5,10-tetraene-10-carboxamide] | 100 to 10000 nM |
| Cn1nc2c3sc(C(=O)NC4CC4)cc3n(-c3ccc(C(F)(F)F)cc3)c2n1 [Compound 6, N-cyclopropyl-4-methyl-7-[4-(trifluoromethyl)phenyl]-11-thia-3,4,5,7-tetraazatricyclo[6.3.0.0^2,6]undeca-1(8),2,5,9-tetraene-10-carboxamide] | 100 to 10000 nM |
| C[C@H](CO)NC(=O)c1cc2c3cn(C)nc3n(-c3ccc(C(F)F)cc3)c2s1 [Compound 107, 7-[4-(difluoromethyl)phenyl]-N-[(2R)-1-hydroxypropan-2-yl]-4-methyl-9-thia-4,5,7-triazatricyclo[6.3.0.0^2,6]undeca-1(8),2,5,10-tetraene-10-carboxamide] | 100 to 10000 nM |
| CNC(=O)c1cc2c3cn(C)nc3n(-c3ccc(SC(F)(F)F)cc3)c2s1 [Compound 85, N,4-dimethyl-7-{4-[(trifluoromethyl)sulfanyl]phenyl}-9-thia-4,5,7-triazatricyclo[6.3.0.0^2,6]undeca-1(8),2,5,10-tetraene-10-carboxamide] | 10 to 100 nM |
| CC[C@@H](O)CNC(=O)c1cc2c3cn(C)nc3n(-c3ccc(C(F)(F)F)cc3)c2s1 [Compound 82, N-[(2R)-2-hydroxybutyl]-4-methyl-7-[4-(trifluoromethyl)phenyl]-9-thia-4,5,7-triazatricyclo[6.3.0.0^2,6]undeca-1(8),2,5,10-tetraene-10-carboxamide] | 100 to 10000 nM |

Same assay, conditions: Homo sapiens, SK-HEP1, SK-HEP-1 cells, 24 hour incubation, number, or n.d. (x) = not detectable below threshold x

| Compound | IC50 |
| --- | --- |
| Cn1cc2c3cc(C(=O)NCC(O)CO)sc3n(-c3ccc(C(F)(F)F)cn3)c2n1 (centres unmarked) [Compound 115, N-(2,3-dihydroxypropyl)-4-methyl-7-[5-(trifluoromethyl)pyridin-2-yl]-9-thia-4,5,7-triazatricyclo[6.3.0.0^2,6]undeca-1(8),2,5,10-tetraene-10-carboxamide] | > 300 nM |
| Cn1cc2c3cc(C(=O)N[C@@H](CO)C4CCC4)sc3n(-c3ccc(C(F)(F)F)cc3)c2n1 (single isomer, unassigned) [Compound 55] | > 9500 nM |
| Cn1cc2c3cc(C(N)=O)sc3n(-c3ccc(C(F)(F)F)cc3)c2n1 [Compound 89, 4-methyl-7-[4-(trifluoromethyl)phenyl]-9-thia-4,5,7-triazatricyclo[6.3.0.0^2,6]undeca-1(8),2,5,10-tetraene-10-carboxamide] | 980 nM |
| CC[C@H](CO)NC(=O)c1cc2c3cn(C)nc3n(-c3ccc(C(F)(F)F)cn3)c2s1 [Compound 114, N-[(2R)-1-hydroxybutan-2-yl]-4-methyl-7-[5-(trifluoromethyl)pyridin-2-yl]-9-thia-4,5,7-triazatricyclo[6.3.0.0^2,6]undeca-1(8),2,5,10-tetraene-10-carboxamide] | > 3000 nM |
| Cn1cc2c3cc(C(=O)NC[C@@H](O)CO)sc3n(-c3ccc(C(F)(F)F)cc3)c2n1 (single isomer, unassigned) [Compound 128] | > 30000 nM |
| Cn1cc2c3cc(C(=O)NC(CO)C4CCC4)sc3n(-c3ccc(C(F)(F)F)cc3)c2n1 (racemic) [Compound 57, N-(1-cyclobutyl-2-hydroxyethyl)-4-methyl-7-[4-(trifluoromethyl)phenyl]-9-thia-4,5,7-triazatricyclo[6.3.0.0^2,6]undeca-1(8),2,5,10-tetraene-10-carboxamide] | > 9500 nM |
| Cn1ccc([C@H](CO)NC(=O)c2cc3c4cn(C)nc4n(-c4ccc(C(F)(F)F)cc4)c3s2)n1 (single isomer, unassigned) [Compound 131] | > 95 nM |
| C[C@H](CO)NC(=O)c1cc2c3cn(C)nc3n(-c3ccc(C(F)(F)F)nc3)c2s1 [Compound 86, N-[(2R)-1-hydroxypropan-2-yl]-4-methyl-7-[6-(trifluoromethyl)pyridin-3-yl]-9-thia-4,5,7-triazatricyclo[6.3.0.0^2,6]undeca-1(8),2,5,10-tetraene-10-carboxamide] | > 30000 nM |
